In patent US11573233B2, “Systems and methods for label-free detection of analytes” (UNIVERSITY OF UTAH RESEARCH FOUNDATION, priority 2015, dated 2023):

Experiment: second harmonic imaging (SHI) of tetracaine binding to lipid bilayer array
Excerpt: SH is a powerful tool for investigating small-molecule and protein interactions with membranes in a label-free manner. However, a high-throughput analog would be even more advantageous, akin to fluorescence imaging. Towards that end, SHI was implemented to measure the interactions between the local anesthetic tetracaine and a […] lipid bilayer array (MLBA) in a label-free manner allowing the effects of lipid phase and CHO content on tetracaine binding to be examined simultaneously.

## CCCCNc1ccc(C(=O)OCCN(C)C)cc1 [tetracaine]
Effect of phospholipid unsaturation and cholesterol content
  maximum surface excess: increases with the degree of unsaturation of the phospholipids and decreases with cholesterol in the lipid bilayers
l.c. phase vs solid-gel phase lipids, label-free SHI
  binding affinity to lipid phases: higher binding affinity to l.c. phase lipids than to solid-gel phase lipids
